# Laboratory results from patent publication US20230293526A1, “METHOD FOR TREATING CANCER WITH A REVERSE TRANSCRIPTASE INHIBITOR” (PrimeFour Therapeutics, Inc., priority 2020, published 2023).
# Columns and labels:
# Type in all cases: cell-based
# [1] = system: HT29; experiment: Cell proliferation Ex.3; conditions: Homo sapiens, HT-29
# Description: (§1) A dose response relationship on cell proliferation was assessed for Compound 13 on 140 tumor cell lines. […] Cells were cultured in the appropriate media. For the assays, cells were seeded in white cell culture-treated flat and clear bottom multiwell plates and incubated at 37° C. overnight before compound was added. […] on the medium, cell plates were equilibrated to room temperature for one hour, CellTiterGlo reagent (Promega) was added and luminescence was measured approximately an hour later using a luminometer. Raw data were converted into percent cell viability relative to the high and low control, which were set to 10000 and 000, respectively.
# [2] = system: CAKI1; experiment: Cell proliferation Ex.3; conditions: Homo sapiens, CAKI-1
# Description: as §1
# [3] = system: UO31; experiment: Cell proliferation Ex.3; conditions: Homo sapiens, UO-31
# Description: as §1
# [4] = system: MDAMB468; experiment: Cell proliferation Ex.3; conditions: Homo sapiens, MDA-MB-468
# Description: as §1
# [5] = system: RAMOS; experiment: Cell proliferation Ex.3; conditions: Homo sapiens
# Description: as §1
# [6] = system: SKMEL28; experiment: Cell proliferation Ex.3; conditions: Homo sapiens, SK-MEL-28
# Description: as §1
# [7] = system: K-562; experiment: Cell proliferation Ex.3; conditions: Homo sapiens, K562
# Description: as §1
# [8] = system: SKNAS; experiment: Cell proliferation Ex.3; conditions: Homo sapiens, SK-N-AS
# Description: as §1
# [9] = system: NCIH460; experiment: Cell proliferation Ex.3; conditions: Homo sapiens, NCI-H460
# Description: as §1
# [10] = system: HS729; experiment: Cell proliferation Ex.3
# Description: as §1
# [11] = system: C33A; experiment: Cell proliferation Ex.3; conditions: Homo sapiens, C-33-A
# Description: as §1
# [12] = system: BT20; experiment: Cell proliferation Ex.3; conditions: Homo sapiens, BT-20
# Description: as §1
# [13] = system: A375; experiment: Cell proliferation Ex.3; conditions: Homo sapiens, A-375
# Description: as §1
# [14] = system: Saos-2 EC; experiment: Cell proliferation CellTiterGlo Ex.2; conditions: Homo sapiens; Saos-2 EC (Bone), 72 h
# How it was run: (§2)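 Cells were seeded, incubated overnight at 37 °C, then dosed at 10, 3, 1, 0.3, 0.1, 0.03, 0.01 and 0.003 μM for 72 h (5% or 10% CO2). CellTiterGlo luminescence gave percent viability relative to 0.10% DMSO (high) and 10 μM staurosporine (low) controls.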
# [15] = system: RERF-LC-MS; experiment: Cell proliferation CellTiterGlo Ex.2; conditions: RERF-LC-MS (Lung), 72 h
# How it was run: as §2
# [16] = system: A2780; experiment: Cell proliferation CellTiterGlo Ex.2; conditions: Homo sapiens; A2780 (Ovary), 72 h
# How it was run: as §2
# [17] = system: Hs 746T; experiment: Cell proliferation CellTiterGlo Ex.2; conditions: Homo sapiens, Hs746T; Hs 746T (Stomach), 72 h
# How it was run: as §2
# [18] = system: Jurkat; experiment: Cell proliferation CellTiterGlo Ex.2; conditions: Homo sapiens; Jurkat (Blood), 72 h
# How it was run: as §2
# [19] = system: NCI-N87; experiment: Cell proliferation CellTiterGlo Ex.2; conditions: Homo sapiens; NCI-N87 (Stomach), 72 h
# How it was run: as §2
# [20] = system: SCLC-21H; experiment: Cell proliferation CellTiterGlo Ex.2; conditions: Homo sapiens; SCLC-21H (Lung), 72 h
# How it was run: as §2
# [21] = system: OPM-2; experiment: Cell proliferation CellTiterGlo Ex.2; conditions: Homo sapiens; OPM-2 (Blood), 72 h
# How it was run: as §2
# [22] = system: Hutu 80; experiment: Cell proliferation CellTiterGlo Ex.2; conditions: Homo sapiens, HuTu80; Hutu 80 (Duodenum), 72 h
# How it was run: as §2
# [23] = system: PC3; experiment: Cell proliferation CellTiterGlo Ex.2; conditions: Homo sapiens, PC-3; PC3 (Prostate), 72 h
# How it was run: as §2
# [24] = system: MDA MB 231; experiment: Cell proliferation CellTiterGlo Ex.2; conditions: Homo sapiens; MDA MB 231 (Breast), 72 h
# How it was run: as §2
# [25] = system: HuH7; experiment: Cell proliferation CellTiterGlo Ex.2; conditions: Homo sapiens, Huh-7; HuH7 (Liver), 72 h
# How it was run: as §2
# [26] = system: RL95-2; experiment: Cell proliferation CellTiterGlo Ex.2; conditions: Homo sapiens; RL95-2 (Endometrium), 72 h
# How it was run: as §2
smiles,measurement,setting,value
C#C[C@]1(CO)O[C@@H](n2cc(F)c(N)nc2=O)C[C@@H]1O [compound 9],IC50,"[1]; HT29, 72 h",> 10 µM
same,IC50,"[1]; HT29, 120 h",> 10 µM
same,IC50,"[1]; HT29, 168 h",> 10 µM
same,IC50,"[2]; CAKI1, 72 h",> 10 µM
same,IC50,"[2]; CAKI1, 120 h",> 10 µM
same,IC50,"[2]; CAKI1, 168 h",> 10 µM
same,IC50,"[3]; UO31, 72 h",> 10 µM
same,IC50,"[3]; UO31, 120 h",> 10 µM
same,IC50,"[3]; UO31, 168 h",> 10 µM
same,IC50,"[4]; MDAMB468, 72 h",> 10 µM
same,IC50,"[4]; MDAMB468, 120 h",> 10 µM
same,IC50,"[4]; MDAMB468, 168 h",> 10 µM
same,IC50,[5]; 72 h,4.04 µM
same,IC50,[5]; 120 h,0.004 µM
same,IC50,[5]; 168 h,1.18 µM
same,IC50,"[6]; SKMEL28, 72 h",> 10 µM
same,IC50,"[6]; SKMEL28, 120 h",> 10 µM
same,IC50,"[6]; SKMEL28, 168 h",> 10 µM
same,IC50,"[7]; K-562, 72 h",> 10 µM
same,IC50,"[7]; K-562, 120 h",> 10 µM
same,IC50,"[7]; K-562, 168 h",> 10 µM
same,IC50,[8]; 72 h,> 10 µM
same,IC50,[8]; 120 h,> 10 µM
same,IC50,[8]; 168 h,> 10 µM
same,IC50,"[9]; NCIH460, 72 h",> 10 µM
same,IC50,"[9]; NCIH460, 120 h",> 10 µM
same,IC50,"[9]; NCIH460, 168 h",> 10 µM
same,IC50,"[10]; HS729, 72 h",> 10 µM
same,IC50,"[10]; HS729, 120 h",> 10 µM
same,IC50,"[10]; HS729, 168 h",> 10 µM
same,IC50,[11]; 72 h,> 10 µM
same,IC50,[11]; 120 h,2.93 µM
same,IC50,[11]; 168 h,3.07 µM
same,IC50,"[12]; BT20, 72 h",> 10 µM
same,IC50,"[12]; BT20, 120 h",> 10 µM
same,IC50,"[12]; BT20, 168 h",> 10 µM
same,IC50,"[13]; A375, 72 h",> 10 µM
same,IC50,"[13]; A375, 120 h",> 10 µM
same,IC50,"[13]; A375, 168 h",> 10 µM
C#C[C@]1(CO)O[C@@H](n2cnc3c(=O)[nH]c(N)nc32)C[C@@H]1O [compound 13],IC50,[14],3.99 µM
same,IC50,[15],> 10 µM
same,IC50,[16],4.58 µM
same,IC50,[17],5.39 µM
same,IC50,[18],1.17 µM
same,IC50,[19],3.6 µM
same,IC50,[20],6.78 µM
same,IC50,[21],> 10 µM
same,IC50,[22],1.44 µM
same,IC50,[23],4.01 µM
same,IC50,[24],3.85 µM
same,IC50,[25],1.24 µM
same,IC50,[26],5.38 µM
